Results filed as inconclusive are left out. Activity calls are given as the source filed them. No rule for the calls is given here.
Test system: BJ-TERT fibroblast viability, ATP luminescence
Experiment: BJ-TERT fibroblast viability loss – cell-based, RAS-independent, luminescence, dose response (AID 1933)

| SMILES | EC50 |
| --- | --- |
| COc1cc2c(c(OC)c1OC)-c1ccc(O)c(=O)cc1C(NC(C)=O)CC2 (configuration not stated) | < 0.12 µM |
| CCSc1nc2ccccc2n1C(=O)/C=C/c1ccc(OC)c(OC)c1 | > 15 µM (inactive) |
